Measured values reported in patent US8796297B2, “4-substituted-2-amino-pyrimidine derivatives” (AbbVie Inc., priority 2009, dated 2014).

How the values were obtained:
[1] = biological target: T1, human histamine H3 receptor (Homo sapiens (Human), UniProt Q9Y5N1); assay: Radioligand competition binding assay, human H3 receptor; conditions: [3H]-N-α-methylhistamine competition binding
[2] = biological target: T1, human histamine H3 receptor; assay: FLIPR functional assay (Ca2+, HEK-293 cells coexpressing Gαqi5), human H3 receptor; assay type: cell-based; conditions: for EC50: FLIPR agonist potency; for Emax: HEK293, read-out: Human Maximum (%)
Description: (§1) There are many methods available to show the effectiveness of compounds as histamine H3 receptor ligands. Histamine H3 receptors from mammalian species have been cloned. Methods to clone, express, and assess the potency and functional activity of such cloned genes are well known to those skilled in the art of molecular biology. […] In the present case, to determine the potency and effectiveness of representative compounds of this invention as histamine-H3 receptor ligands (H3 receptor ligands), the following tests were conducted according to previously described methods (see Esbenshade, et al., Journal of Pharmacology and Experimental Therapeutics 2003, 305, 887-896, Esbenshade, et al., Biochemical Pharmacology 2004, 68, 933-945, and in Krueger, et al., Journal of Pharmacology and Experimental Therapeutics 2005, 314, 271-281): histamine H3 receptors were cloned and stably expressed in HEK-293 (human embryonic kidney) cells coexpressing a Gαqi5. Before testing, cells were loaded with a Ca^+2 sensitive fluorescent dye, in this case Fluo-4. For partial agonist or full agonist ligands, addition of compound to the cells led to an increase in intracellular Ca^+2 which was detected by FLIPR (Fluorescence Imaging Plate Reader; Molecular Devices, Sunnyvale, Calif.) technology. The fluorescence intensities measured before addition of the test compound were subtracted from the fluorescence intensities at later time points. Peak response values determined at each concentration of ligand were expressed as a percentage of the response obtained with a maximal concentration (1 μM) of the full agonist R-α-methyl-histamine (RAMH). Concentration versus response data were analyzed to obtain compound potency as EC50 values for full and partial agonists.

[3] = biological target: T2, rat histamine H3 receptor (Rattus norvegicus (Rat), UniProt Q9QYN8); assay: FLIPR functional assay (Ca2+, HEK-293 cells coexpressing Gαqi5), rat H3 receptor; assay type: cell-based; conditions: for Rat Maximum (%): FLIPR, percentage of the response to 1 μM RAMH; for EC50: FLIPR agonist potency
Description: as §1

H3 receptor = H3 receptor (Mus musculus (Mouse), UniProt P58406); assay: Mouse dipsogenia model (water intake); assay type: in vivo, CD-1 mouse
Procedure: Intraperitoneal administration of an H3 receptor agonist such as R-alpha-methyl-histamine elicits drinking in the hydrated CD-1 mouse (Fox, G. B.; et al. Pharmacology Biochemistry and Behavior 2002, 72, 741-750). This dipsogenic response is an indication of agonist activity in vivo and can be monitored by measuring the water intake of drug-treated animals in a 30 minute period.

[4] = biological target: T2, rat histamine H3 receptor; assay: Radioligand competition binding assay, rat H3 receptor; conditions: [3H]-N-α-methylhistamine competition binding
Procedure: To determine the effectiveness of representative compounds of this invention as histamine-3 receptor ligands (H3 receptor ligands), the following tests were conducted according to previously described methods (see European Journal of Pharmacology 1990, 188, 219-227; Journal of Pharmacology and Experimental Therapeutics 1995, 275, 598-604; Journal of Pharmacology and Experimental Therapeutics 1996, 276, 1009-1015; and Biochemical Pharmacology 1973, 22, 3099-3108).
The rat H3 receptor was cloned and expressed in cells, and competition binding assays carried out, according to methods previously described (see Esbenshade, et al. Journal of Pharmacology and Experimental Therapeutics 2005, 313, 165-175; Esbenshade et al., Biochemical Pharmacology 2004, 68, 933-945; and Krueger, et al. Journal of Pharmacology and Experimental Therapeutics 2005, 314, 271-281). Membranes were prepared from C6 or HEK293 cells, expressing the rat histamine H3 receptor, by homogenization on ice in TE buffer (50 mM Tris-HCl buffer, pH 7.4, containing 5 mM EDTA), 1 mM benzamidine, 2 μg/ml aprotinin, 1 μg/ml leupeptin, and 1 μg/ml pepstatin. The homogenate was centrifuged at 40,000 g for 20 minutes at 4° C. This step was repeated, and the resulting pellet was resuspended in TE buffer. Aliquots were frozen at −70° C. until needed. On the day of assay, membranes were thawed and diluted with TE buffer.
Membrane preparations were incubated with [^3H]-N-α-methylhistamine (0.5-1.0 nM) in the presence or absence of increasing concentrations of ligands for H3 receptor competition binding. The binding incubations were conducted in a final volume of 0.5 ml TE buffer at 25° C. and were terminated after 30 minutes. Thioperamide (30 μM) was used to define non-specific binding. All binding reactions were terminated by filtration under vacuum onto polyethylenimine (0.3%) presoaked Unifilters (Perkin Elmer Life Sciences) or Whatman GF/B filters followed by three brief washes with 2 ml of ice-cold TE buffer. Bound radiolabel was determined by liquid scintillation counting. For all of the radioligand competition binding assays, IC50 values and Hill slopes were determined by Hill transformation of the data and pKi values were determined by the Cheng-Prusoff equation.

human H3R = human H3R (Homo sapiens (Human), UniProt Q9Y5N1); assay: GTPγS functional assay, membranes from HEK cells expressing the human H3R; assay type: biochemical; conditions: for EC50: GTPγS agonist potency
Procedure: (§2) Membranes from HEK cells expressing the human H3R, or from C6 cells expressing the rat H3R, were prepared by homogenization in cold buffer containing 50 mM Tris-HCl (pH 7.4), 5 mM EDTA, 10 mM MgCl2, 1 mM benzamidine, 2 μg/ml aprotinin, 1 μg/ml leupeptin, and 1 μg/ml pepstatin. The homogenate was centrifuged at 40,000 g for 20 min at 4° C., and the resulting pellet was resuspended in 50 mM Tris-HCl (pH 7.4), 5 mM EDTA, and 10 mM MgCl2 and homogenized. Glycerol and bovine serum albumin were added to a final concentration of 10% glycerol and 1% bovine serum albumin. Membranes were diluted in GTPγS assay buffer (25 mM HEPES, 2.5 mM MgCl2, and 75 mM NaCl, pH 7.4) and 10 μg of membrane protein was incubated in a 96-well deep-well block in the presence of 5.0 μM unlabeled GDP, approximately 0.5 nM of [^35S]GTPγS, and increasing concentrations of test compounds. Samples were incubated at 37° C. for 5 min and the assays were terminated by the addition of cold buffer (50 mM Tris-HCl, 75 mM NaCl, and 2.5 mM MgCl2, pH 7.6) and subsequent harvesting onto a Packard Unifilter 96-well GF/B plate followed by extensive washing. Microscint 20 (PerkinElmer Life Sciences) was added to the samples, and bound [^35S]GTPγS was determined using the Topcount (Perkin Elmer Life Sciences). The percentage of [^35S]GTPγS bound in each sample was calculated as a percentage of that bound to control samples incubated in the absence of the H3R agonists (basal). Data were analyzed from experiments performed in triplicate using GraphPad Prism to obtain pEC50 values, Hill slopes, and maximal % response.

rat H3R = rat H3R (Rattus norvegicus (Rat), UniProt Q9QYN8); assay: GTPγS functional assay, membranes from C6 cells expressing the rat H3R; assay type: biochemical; conditions: for EC50: GTPγS agonist potency
Procedure: as §2

[5] = system: acetic acid-induced writhing; assay: Acetic acid-induced writhing in mice; assay type: in vivo; conditions: subcutaneous dose of 300 mg/kg, 30 minutes prior to 0.9% acetic acid ip
Procedure: Intraperitoneal injection of 0.9% acetic acid induces a writhing response that is quantified by counting the number of these induced characteristic lengthwise abdominal constrictions with torso elongations in a fixed time period (Langford, D. J.; et al. Science 2006, 312, 1967-1970). Reduction of the number of writhes by a compound administered 30 minutes prior to acetic acid exposure is a measure of analgesic activity.

[6] = FLIPR, percentage of the response to 1 μM RAMH
[7] = [35S]GTPγS bound as percentage of basal

T1 sequence (Q9Y5N1 whole entry): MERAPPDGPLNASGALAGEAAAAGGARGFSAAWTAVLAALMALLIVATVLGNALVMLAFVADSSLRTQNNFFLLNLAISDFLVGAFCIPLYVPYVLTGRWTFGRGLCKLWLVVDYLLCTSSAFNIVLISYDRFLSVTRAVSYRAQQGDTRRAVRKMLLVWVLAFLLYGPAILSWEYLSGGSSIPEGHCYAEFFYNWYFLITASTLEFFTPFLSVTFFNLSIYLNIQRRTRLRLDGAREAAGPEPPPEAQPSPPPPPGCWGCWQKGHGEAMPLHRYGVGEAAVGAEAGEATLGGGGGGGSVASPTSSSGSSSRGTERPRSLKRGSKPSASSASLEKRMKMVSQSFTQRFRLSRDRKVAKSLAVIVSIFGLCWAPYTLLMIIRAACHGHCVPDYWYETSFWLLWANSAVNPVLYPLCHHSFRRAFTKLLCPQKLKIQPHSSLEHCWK
Sequence of human H3R (Q9Y5N1 whole entry): as above
Sequence of rat H3R (Q9QYN8 whole entry): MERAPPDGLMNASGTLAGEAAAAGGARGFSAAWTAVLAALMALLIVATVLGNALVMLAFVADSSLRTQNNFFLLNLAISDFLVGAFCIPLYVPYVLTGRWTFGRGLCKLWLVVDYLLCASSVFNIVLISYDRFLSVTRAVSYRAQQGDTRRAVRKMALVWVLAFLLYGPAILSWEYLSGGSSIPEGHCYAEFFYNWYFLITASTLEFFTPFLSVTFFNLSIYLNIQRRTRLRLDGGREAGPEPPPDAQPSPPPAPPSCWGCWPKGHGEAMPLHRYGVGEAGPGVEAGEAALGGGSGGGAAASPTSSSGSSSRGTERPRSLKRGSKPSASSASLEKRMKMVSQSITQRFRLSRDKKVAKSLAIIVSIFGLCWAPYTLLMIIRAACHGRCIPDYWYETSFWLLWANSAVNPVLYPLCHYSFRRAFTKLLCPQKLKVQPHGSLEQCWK
T2 sequence (Q9QYN8 whole entry): as above
Sequence of H3 receptor (P58406 whole entry): as the sequence (Q9QYN8 whole entry) above, with T15A, A286T, A290G, R387H, I389V counted along it

Nc1nccc(N[C@H]2CC[C@H](N)CC2)n1 [Example 16, Trans-N^4-(4-aminocyclohexyl)pyrimidine-2,4-diamine]
Ki [1]: > 363 nM | EC50 [2]: 17700 nM | Emax [2, 6]: 34.2% | Rat Maximum (%) [3]: 74.0%

O=C(c1ccc(OCCCc2cnc[nH]2)cc1)C1CC1 [ciproxifan, reference compound]
effect on dipsogenic response to Example 1 (H3 receptor; ciproxifan 3 μmol/kg, ip against Example 1 240 μmol/kg): blocked

Cl.Cl.Nc1nccc(N2CCC(N)CC2)n1 [Example 20, 4-(4-aminopiperidin-1-yl)pyrimidin-2-amine dihydrochloride]
Ki [1]: 302 nM | Ki [4]: 58.9 nM | EC50 [2]: 254 nM | Emax [2, 6]: 41% | EC50 [3]: 51.7 nM | Rat Maximum (%) [3]: 83.0% | Emax (human H3R; 5 min, [35S]GTPγS bound as percentage of basal, read-out: Human Maximum (%)): 122% | EC50 (human H3R): 1050 nM | Emax (rat H3R; 5 min, [35S]GTPγS bound as percentage of basal, read-out: Rat Maximum (%)): 123% | EC50 (rat H3R): 724 nM

NCCNc1ccnc(N)n1.O=C(O)C(O)C(O)C(=O)O [Example 1, N^4-(2-aminoethyl)pyrimidine-2,4-diamine(2R,3R)-2,3-dihydroxysuccinate]
Ki [1]: 63.1 nM | Ki [4]: 5.5 nM | EC50 [2]: 124 nM | Human Maximum (%) [2, 6]: 60.2% | EC50 [3]: 5.47 nM | Rat Maximum (%) [3]: 100.0% | EC50 (human H3R): 513 nM | Human Maximum (%) (human H3R; [7]): 147% | EC50 (rat H3R): 174 nM | Rat Maximum (%) (rat H3R; [7]): 181% | water intake (dipsogenic response) (H3 receptor; dose dependently at 80, 160, and 240 μmol/kg, ip, 30 minute period, hydrated CD-1 mouse): induced water intake | number of writhes [5]: significantly reduced
